Data on one molecule can be found in patent publication US20250178051A1, “METHODS OF CONTROLLING MICROBIOLOGICAL PROCESSES FOR IN SITU CONTAMINANT TREATMENT” (priority 2022, published 2025).

Experiment [1] deals with soil-derived propane-consuming mixed culture. Description: TCE cometabolism and biomass production of mixed culture after acetylene exposure. It is filed as cell-based, mixed culture enriched from an uncontaminated soil. Conditions: for TCE consumption rate: 5% v/v acetylene, 50 μM TCE. The text has this:
(§1) Aerobic cometabolism of TCE is a viable methodology for TCE removal in large diffuse contaminant plumes. A pure culture of the known aerobic cometabolic TCE degrader, Mycobacterium austroafricanum JOB5 (formerly known as Mycobacterium vaccae JOB5) and a mixed culture enriched from an uncontaminated soil in mineral medium using propane and oxygen as growth substrates were used to test the efficiency of acetylene in reducing biomass growth rate (e.g., a proxy for bioclogging). The mixed culture was created through serial transfers from the original soil microcosms.
(§2) The pure and mixed cultures were then exposed to 50 μM TCE to verify their capacity to aerobically cometabolically degrade TCE. Once their capability to degrade TCE was verified, both cultures were grown in 2 L bottles and fed oxygen and propane until the optical density at 600 nm stabilized at ˜0.2 for multiple days. Then, the two cultures were exposed to acetylene at 5% v/v for varying lengths of time (no exposure (0), 1, 2, 4 and 8 days). The dissolved acetylene concentration in the 2 L bottles was 2.2 mmol/L.
(§3) After the set acetylene exposure time, culture was extracted, and triplicate bottles were started with 50 μM TCE and a pure oxygen headspace. The cultures were then monitored for propane (residual and added) and oxygen consumption, TCE degradation, carbon dioxide production, biomass production, and pH change.

The subject of experiment [2] is Mycobacterium austroafricanum JOB-5 (JOB-5) and a mixed culture, named COMET1. Nature of the experiment: Soil columns with contaminated site soil and groundwater, flow through mode, acetylene-containing groundwater. Further details: species or system Mycobacterium austroafricanum JOB-5 and COMET1 mixed culture. Conditions: soil columns, propane fed and acetylene inhibited, two three-hour pulses per day at 0.2 mL/min. The protocol:
Groundwater was pumped at a 2-Day HRT (0.2 mL/min) from six pumps programmed to automatically turn on and turn off to deliver groundwater of varying chemistries to the soil columns. For the Propane-Fed (pumps 2-3) and the Propane-Fed and Acetylene-Inhibited treatments (pumps 4-6) which had multiple pumps feeding into one line PVC plastic check valves were installed at line splitting locations to avoid backflow to other feeder bags when pumps automatically started or stopped pumping according to the schedule presented in FIG. 5.
Acetylene or propane from a gas tank was bubbled into groundwater in a closed container in the lab. That groundwater was then pumped from closed container to a sealable Tedlar bag. The Tedlar bag was then connected to the pump which was controlled by a timer to deliver two three-hour pulses of acetylene containing groundwater at 0.2 mL/min per day. The pump effectively serves as a seal for the Tedlar bag as the tubing is pinched at one location to create suction.
For propane, 0.5 L of propane was bubbled through 10 L water for at least four hours. That propane-containing water was then pumped into a Tedlar bag. For the treatments which received propane-containing water, the water was pumped into the columns at 0.2 mL/min to 6 hrs/day (two three-hour pulses). For acetylene, 0.5 L of acetylene was bubbled through 10 L water for at least four hours. That acetylene-containing water was then pumped into a Tedlar bag. For the treatments which received acetylene-containing water, the water was pumped into the columns at 0.2 mL/min to 6 hrs/day (two three-hour pulses) […]
Phase I involves bioaugmentation in soil columns in batch mode. […] Batches were continued until either propane was not detected in the groundwater or propane consumption slowed. […]
Phase II involves flow through mode. […] These gas syringes were then analyzed for TCE, propane, and acetylene via gas chromatography with flame ionization detection (GC-FID) and for oxygen and carbon dioxide via assessment of a thermal conductivity detector (TCD). […]

Experiment [3] deals with Mycobacterium austroafricanum JOB5. Nature of the experiment: TCE cometabolism and biomass production of pure culture after acetylene exposure. It is filed as cell-based. Conditions: for TCE consumption rate: 5% v/v acetylene, 50 μM TCE.
From the text: as §1, §2, §3

The mark [4] stands for this setting: as acetylene exposure times increased (1-8 days), 5% v/v.

Consider `C#C` [acetylene], for which the “rate of TCE degradation” value in experiment [1] (setting [4]) and in experiment [3] (setting [4]) was “decreased” throughout. The “rate of biomass production (optical density)” value in experiment [1] (setting [4]) and in experiment [3] (setting [4]) was “decreased” in each case. Further, the TCE consumption rate in experiment [1] (day 1 of acetylene exposure) is 0.45 μmol TCE/(L day); in experiment [1] (day 2 of acetylene exposure), 0.54 μmol TCE/(L day); in experiment [1] (day 4 of acetylene exposure), 0.52 μmol TCE/(L day); in experiment [1] (day 8 of acetylene exposure) it was 0.25 μmol TCE/(L day); in experiment [3] (day 1 of acetylene exposure), 0.42 μmol TCE/(L day); in experiment [3] (day 2 of acetylene exposure), 0.63 μmol TCE/(L day). Moreover, the results for the TCE consumption rate in experiment [3] (day 4 of acetylene exposure) and in experiment [3] (day 8 of acetylene exposure) were 0.36 μmol TCE/(L day) and 0.07 μmol TCE/(L day), respectively. For the same molecule, the “TCE degradation (cumulative TCE removal)” value in experiment [2] is recorded as “slowed”. In addition, the “biomass production (total organic carbon as proxy)” value in experiment [2] was “slowed”. For the same molecule, the “propane consumption (cumulative)” value in experiment [2] was “slowed”.
